Data on eleven compounds can be found in ChEMBL document CHEMBL1201862, “PubChem BioAssay data set” (2004).

Some test systems named below: A498; CAKI-1; HL-60; HT-29; Hs-578T; IGROV-1; KM12; M14; MDA-MB-435; NCI-H460; NCI-H522; OVCAR-3; OVCAR-5; RXF 393; SN12C; SR; SW-620; TK-10; MCF7; SK-MEL-2.
Common to all, as to assay: NCI-60 cell line screen, 48 h

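The compound was tested at five concentrations on cells cultured in 96-well plates, with a 48-hour exposure period. GI50: concentration for 50% inhibition of growth.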 Calls of active or inactive are those of the source. Cut-off read from the data, not from the text of the source: active = GI50 up to about 1.1 µM and inactive = higher.

For the compound `CC1(C)CC2(C)CC1CC2(O)c1ccccc1` (stereo not given), the GI50 with A498, in the test on CAKI-1, in the test with HL-60, in the test on HT-29, with Hs-578T and in the test with IGROV-1 was > 100 µM (inactive) in each case. Also, the GI50 with KM12, in the test with M14, in the test on MDA-MB-435, in the test on NCI-H460, with NCI-H522 and in the test on OVCAR-3 was > 100 µM (inactive) throughout. Also, the GI50 in the test on OVCAR-5, in the test with RXF 393, with SN12C, in the test with SR, in the test with SW-620 and in the test on TK-10 was > 100 µM (inactive) in each case.

`Cc1ccc(-c2nc(-c3cnccn3)n(C3OC(CO)C(O)C(O)C3O)n2)cc1` (stereo not given): the GI50 in the test on HL-60, with HT-29, in the test on IGROV-1, in the test with KM12, in the test with M14 and in the test with MCF7 was > 100 µM (inactive) each time. For the same compound, the GI50 with MDA-MB-435, in the test with NCI-H460, with NCI-H522, with OVCAR-3, in the test on OVCAR-5 and with RXF 393 was > 100 µM (inactive) throughout. Moreover, the GI50 with SN12C, in the test on SR, in the test on SW-620 and with TK-10 was > 100 µM (inactive) each time.

For the compound `CC(=O)OCC1OC(Sc2nc(-c3ccc(C)cc3)c(C#N)c(=O)n2C2OC(COC(C)=O)C(OC(C)=O)C(OC(C)=O)C2OC(C)=O)C(OC(C)=O)C(OC(C)=O)C1OC(C)=O` (stereo not given), the GI50 with A498, in the test on CAKI-1, with HT-29, in the test with Hs-578T, with IGROV-1 and in the test with MCF7 was > 100 µM (inactive) in each case. Also, the GI50 in the test on NCI-H460, with NCI-H522, in the test with OVCAR-3, with OVCAR-5, in the test with RXF 393 and in the test on SK-MEL-2 was > 100 µM (inactive) each time. In addition, the GI50 with SN12C, in the test with SR, in the test on SW-620 and with TK-10 was > 100 µM (inactive) in each case.

For the compound `O=[PH]1c2ccccc2Nc2ccccc21`, the GI50 was 21.7 µM (inactive) in the test with A498; > 100 µM (inactive) in the test with CAKI-1; 75.7 µM (inactive) with HL-60; 51.6 µM (inactive) in the test on HT-29; > 100 µM (inactive) in the test with IGROV-1; > 100 µM (inactive) in the test with KM12. The GI50 in the test on M14 was > 100 µM (inactive); with MCF7 it was > 100 µM (inactive); with MDA-MB-435 it was > 100 µM (inactive); in the test with NCI-H460, 53.5 µM (inactive); with NCI-H522, 74.3 µM (inactive); in the test on OVCAR-3 it was 52.6 µM (inactive). In addition, the GI50 is > 100 µM (inactive) with OVCAR-5; > 100 µM (inactive) in the test on RXF 393; 49.9 µM (inactive) in the test with SK-MEL-2; > 100 µM (inactive) with SN12C; > 100 µM (inactive) with SR; 63.7 µM (inactive) in the test with SW-620. Also, the GI50 with TK-10 was > 100 µM (inactive).

On to `CC(C)=Cc1cc(CCC/C(C)=C/Cc2c(O)cc(C)c(C(=O)O)c2O)co1`, for which the GI50 in the test with CAKI-1 is > 100 µM (inactive); with HT-29, > 100 µM (inactive); in the test on Hs-578T, 26.2 µM (inactive); in the test with IGROV-1, > 100 µM (inactive); with KM12, > 100 µM (inactive); with M14, > 100 µM (inactive). Besides, the GI50 in the test with MCF7 is > 100 µM (inactive); in the test with MDA-MB-435, > 100 µM (inactive); in the test with NCI-H460, > 100 µM (inactive); with NCI-H522 it was 12.9 µM (inactive); in the test with OVCAR-3, > 100 µM (inactive); in the test on OVCAR-5 it was > 100 µM (inactive). Also, the GI50 in the test with SK-MEL-2, in the test on SN12C, in the test with SW-620 and in the test on TK-10 was > 100 µM (inactive) in each case.

Turning to `CSCSSC`, the GI50 was 0.0231 µM (active) in the test with A498; > 21.6 µM (inactive) with CAKI-1; 2.54 µM (inactive) in the test on HL-60; > 100 µM (inactive) in the test on HT-29; > 100 µM (inactive) in the test with Hs-578T; > 79.6 µM (inactive) with IGROV-1. In addition, the GI50 was > 57.3 µM (inactive) in the test with KM12; > 100 µM (inactive) with M14; > 78 µM (inactive) in the test with MDA-MB-435; > 100 µM (inactive) with NCI-H460; > 100 µM (inactive) with NCI-H522; > 100 µM (inactive) with OVCAR-3. The GI50 in the test with OVCAR-5 was > 100 µM (inactive); with RXF 393, > 100 µM (inactive); in the test on SK-MEL-2 it was > 35.5 µM (inactive); in the test on SN12C, > 100 µM (inactive); in the test on SR, 30.7 µM (inactive); in the test on SW-620 it was 49.4 µM (inactive). In addition, the GI50 in the test on TK-10 was > 100 µM (inactive).

For the compound `COC(=O)C1CCC(=S)N1C(=O)c1ccccc1` (stereo not given), the GI50 in the test on A498, in the test on CAKI-1, with HT-29, in the test on Hs-578T, in the test on IGROV-1 and in the test on KM12 was > 100 µM (inactive) throughout. Moreover, the GI50 in the test on M14 was > 100 µM (inactive); in the test on MCF7, > 100 µM (inactive); in the test with MDA-MB-435, > 100 µM (inactive); with NCI-H460, 40.6 µM (inactive); in the test on NCI-H522, > 100 µM (inactive); with OVCAR-3, > 100 µM (inactive). Besides, the GI50 with OVCAR-5, with RXF 393, with SK-MEL-2 and in the test on TK-10 was > 100 µM (inactive) in each case.

Regarding `O=c1c(Cl)c(Cl)cnn1CCCl`, the GI50 with A498 is 13.1 µM (inactive); in the test on CAKI-1 it was 2.27 µM (inactive); in the test with HL-60, 2.19 µM (inactive); in the test on HT-29, 2.81 µM (inactive); in the test with Hs-578T, 3.25 µM (inactive); in the test on IGROV-1 it was 1.95 µM (inactive). The GI50 was 14.4 µM (inactive) with KM12; 2.67 µM (inactive) in the test on M14; 2.82 µM (inactive) in the test with MDA-MB-435; 8.13 µM (inactive) in the test with NCI-H460; 0.558 µM (active) in the test on NCI-H522; 3.47 µM (inactive) in the test on OVCAR-3. Besides, the GI50 in the test on OVCAR-5 was 16.5 µM (inactive); with RXF 393, 2.09 µM (inactive); with SN12C, 12.9 µM (inactive); in the test with SW-620 it was 1.9 µM (inactive); in the test with TK-10, 15.9 µM (inactive).

For `ClCCN(CCCl)c1ccc(/C=N/Nc2ccnc3ccccc23)cc1`, the GI50 in the test on A498 was 20.3 µM (inactive); in the test on CAKI-1 it was 2.18 µM (inactive); in the test with HT-29, 0.736 µM (active); in the test on Hs-578T, 2.23 µM (inactive); in the test with IGROV-1, 1.65 µM (inactive); in the test with KM12, 1.58 µM (inactive). In addition, the GI50 is 2.02 µM (inactive) in the test with M14; 3.03 µM (inactive) in the test on MCF7; 1.53 µM (inactive) in the test on MDA-MB-435; 2.73 µM (inactive) in the test on NCI-H460; 1.83 µM (inactive) in the test on NCI-H522; 1.88 µM (inactive) with OVCAR-3. Besides, the GI50 in the test with OVCAR-5 is 1.5 µM (inactive); in the test on SK-MEL-2, 2 µM (inactive); with SN12C, 1.65 µM (inactive); in the test on SW-620, 1.87 µM (inactive); in the test on TK-10, 1.52 µM (inactive).

Turning to `O=Cc1c(C(=O)O)[nH]c(=O)[nH]c1=O`, the GI50 with A498, in the test on CAKI-1, with HL-60, in the test on HT-29, with Hs-578T and in the test on IGROV-1 was > 100 µM (inactive) throughout. Besides, the GI50 in the test on KM12 is > 100 µM (inactive); in the test on M14, > 100 µM (inactive); in the test on MDA-MB-435, > 100 µM (inactive); in the test on NCI-H460, > 100 µM (inactive); in the test on NCI-H522 it was 58.3 µM (inactive); in the test with OVCAR-3, > 100 µM (inactive). The GI50 is 39.8 µM (inactive) in the test on OVCAR-5; > 100 µM (inactive) in the test with RXF 393; > 100 µM (inactive) in the test on SK-MEL-2; > 100 µM (inactive) in the test on SN12C; > 10 µM (inactive) in the test with SR; > 100 µM (inactive) in the test on SW-620. Further, in the test on TK-10, the GI50 was > 100 µM (inactive).

Regarding `COc1ccc(CN2C(=O)C(Cc3cc(OC)c(OC)c(C)c3OC)N(C(=O)OC(C)C)C(=O)/C2=C/c2cc(OC)c(OC)c(C)c2OC)cc1` (stereo not given), the GI50 in the test with A498 was > 100 µM (inactive); in the test with CAKI-1, > 100 µM (inactive); in the test on HL-60, 7.96 µM (inactive); with HT-29, > 100 µM (inactive); with IGROV-1, > 100 µM (inactive); in the test with KM12, > 100 µM (inactive). The GI50 with M14 was > 100 µM (inactive); with NCI-H460 it was 18.4 µM (inactive); in the test with NCI-H522, 4.4 µM (inactive); in the test with OVCAR-3, 16.1 µM (inactive); in the test on OVCAR-5, > 100 µM (inactive); in the test on RXF 393 it was 6.9 µM (inactive). Also, the GI50 in the test with SK-MEL-2 was 49.1 µM (inactive); in the test with SN12C, > 100 µM (inactive); with SR, 15.2 µM (inactive); in the test on SW-620, > 100 µM (inactive); with TK-10, > 100 µM (inactive).
